System: human foreskin fibroblasts (HFF1y, Beijing Stem Cell Bank)
Experiment: Transdifferentiation of human foreskin fibroblasts into neurons in vitro (induction culture solution, then mature culture solution)
Format: cell-based
Details: for rank of gene expression level of neuronal markers (MAPT and MAP2) by myosin inhibitor in the culture solutions: induction 7 days, mature solution (with isoxazole) 7 days, Examples 8-12
Experimental: After removing the fibronectin solution, the human foreskin fibroblasts (HFF1y, Beijing Stem Cell Bank) were evenly inoculated at 2×10^6 cells per vessel, culturing with basal medium (high glucose DMEM (Gibco, C12430500BT) plus 10% fetal bovine serum (Gibco, 16000-044)) for 12 hours. After removing the basal medium, the cells were washed with PBS.
An induction culture solution was added to the HFF1y vessel after undergoing the above treatment to culture for 1-7 days.
After the above induction culture for 1-7 days, a mature culture solution was added to HFF1y to culture for 7-45 days.

[1] = induction solution without Ble 7 days, then mature solution with ISX9 and without Ble 7 days

SMILES | rank of gene expression level of neuronal markers (MAPT and MAP2) by myosin inhibitor in the culture solutions | cell morphology (micrograph) [1] | expressions of canonical neuronal markers (GFAP, TUJ1, MAP2, MAPT, STMN1, NCAM) and synapse-related proteins (NEFH, PSD95, SYN1, SYT) [1] | gene expression of fibroblast marker FSP1 [1] | gene expression of neural transcription factors (ASCL1, BRN2, NEUROD1) [1] | RNA-seq, GO cluster analysis of up-regulated genes (induction culture system comprising only Ble, p<0.05) | cell morphology after induction culture solution only (induction solution 25 μM Ble, 1-7 days, no isoxazole)
Cc1ccc2c(c1)C(=O)[C@]1(OC(=O)c3ccccc3)CCN(c3ccccc3)C1=N2 [Ble-OB, (−)-Blebbistatin O-Benzoate] | third |  |  |  |  |  | 
O=C(NC1CC1)c1cc(-c2cccs2)on1 [ISX9, isoxazole 9] |  | do not appear neuron-like morphology | significantly up-regulated | significantly down-regulated | up-regulated |  | 
Cc1ccc2c(c1)C(=O)[C@]1(O)CCN(c3ccccc3)C1=N2 [Ble, (−)-Blebbistatin] | highest |  |  |  |  | up-regulated genes in induced cells were enriched in the neuronal fate-related pathways | obvious neuronal morphology, small and round cell bodies, and rich and long synapses

Reference: US20230365927A1, “COMPOSITION AND METHOD FOR […] NON-NEURONAL CELLS INTO NEURONS” (INSTITUTE OF ZOOLOGY, CHINESE ACADEMY OF SCIENCES, priority 2020, published 2023)
